Measured values: PMC1361622 (2006)

Tested on: construct 1 (consensus-type glmS ribozyme, A6 and A58) (RNA, ribozyme) GGUAAAUUAUAAAAGCGCCAGAACUACAGAAAUGUAGUUGACGAGGAGGAGGUUUAUCGAAUUUUCGGCGGAUGCCUCC
Assay: half-maximal kobs of ligand-dependent self-cleavage
Settings: 20 mM Mg2+; 50 mM Tris-HCl pH 7.5, 23 °C; GlcN6P varied

N[C@H]1C(O)O[C@H](COP(=O)(O)O)[C@@H](O)[C@@H]1O (stereo partly shown)
apparent Kd: ~ 200 µM
